Literature values, collected in US20070213270A1, “PEPTIDE YY FORMULATIONS HAVING INCREASED STABILITY AND RESISTANCE TO MICROBIAL AGENTS” (priority 2004, published 2007).

Experiments:
[1] = system: ciliary motility
[2] = system: aminopeptidases
[3] = aqueous solution at physiologic pH

2-alkyl-4-hydroxyquinolines [pyo compound]
concentration producing ciliostasis / inhibiting ciliary motility [1]: 50 µg/mL

CC(C)CC(N)B(O)O (centres unmarked) [boro-leucine]
effectiveness in enzyme inhibition relative to bestatin [2]: more than 100 times | effectiveness in enzyme inhibition relative to puromycin [2]: more than 1000 times

CCN(CC)/[N+]([O-])=N/O.CCNCC [diethylamine/NO]
rate of NO release [3]: < 3 min

NCCN(CCN)/[N+]([O-])=N/O [diethylenetriamine/NO (DETANO), diethylenetriamine/NO]
rate of NO release [3]: approximately 20 hours
